Among the data in patent EP4389749A1, “SUBSTITUTED 3,7-DIHYDRO-1H-PURINE-2,6-DIONES AND USE THEREOF” (invIOs GmbH, priority 2022, dated 2024) are EC50 values, retold here.

In one assay the test system is CD8+ T-cells. As to the kind of experiment: Immunostimulation assay with anti-CD3/28 stimulated T-cells, CD69 expression by flow cytometry. The note with it: T-cell; purified human CD4+ and CD8+ T-cells, 1 µg/ml anti-CD3, 1 µg/ml anti-CD28, 16 hours, surface FACS; read-out: EC50 CD8+. The assay is classed as cell-based, human. A digest of the protocol:
(§1)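 Human CD4+/CD8+ T-cells purified from buffy-coat PBMCs were stimulated with 1 µg/ml anti-CD3 and 1 µg/ml anti-CD28 plus compound (0.001–30 µM) for 16 h at 37 °C. CD69 measured by flow cytometry; DMSO set minimal, CD3/28 Dynabeads maximal activation; EC50 by variable-slope fit.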
Background: Flow cytometry measures light scatter and fluorescence of single cells or particles in a stream.

For the next assay, the system named is CD4+ T-cells. The description is as above. The following applies: T-cell; purified human CD4+ and CD8+ T-cells, 1 µg/ml anti-CD3, 1 µg/ml anti-CD28, 16 hours, surface FACS; read-out: EC50 CD4+. The assay is classed as cell-based, human. A digest of the protocol:
as §1

By EC50 is commonly meant the concentration needed to bring the measured effect to its halfway point. In the case of `CC(O)Cn1c(=O)[nH]c(=O)c2c1nc(-c1ccc(Oc3ccc(Cl)cc3)cc1)n2C` (centres unmarked) [Compound 138, 8-(4-(4-chlorophenoxy)phenyl)-3-(2-hydroxypropyl)-7-methyl-3,7-dihydro-1H-purine-2,6-dione], the EC50 with CD8+ T-cells and in the assay with CD4+ T-cells was 1000 to 5000 nM throughout.
On to `CC(O)Cn1c(=O)[nH]c(=O)c2c1nc(-c1ccc(Oc3ccccc3)c(Cl)c1)n2C` (centres unmarked) [Compound 141, 8-(3-chloro-4-phenoxyphenyl)-3-(2-hydroxypropyl)-7-methyl-3,7-dihydro-1H-purine-2,6-dione], for which the EC50 with CD8+ T-cells and in the assay on CD4+ T-cells was 1000 to 5000 nM each time.
Turning to `Cn1c(-c2ccc(Oc3ccc(Cl)cc3)c(Cl)c2)nc2c1c(=O)[nH]c(=O)n2CC(O)CF` (centres unmarked) [Compound 147, 8-(3-chloro-4-(4-chlorophenoxy)phenyl)-3-(3-fluoro-2-hydroxypropyl)-7-methyl-3,7-dihydro-1H-purine-2,6-dione], the EC50 in the assay with CD8+ T-cells and with CD4+ T-cells was under 100 nM each time.
On to `Cn1c(-c2ccc(Oc3ccc(OC(F)F)cc3)c(Cl)c2)nc2c1c(=O)[nH]c(=O)n2CC(O)CF` (centres unmarked) [Compound 148, 8-(3-chloro-4-(4-(difluoromethoxy)phenoxy)phenyl)-3-(3-fluoro-2-hydroxypropyl)-7-methyl-3,7-dihydro-1H-purine-2,6-dione], for which the EC50 in the assay with CD8+ T-cells and in the assay on CD4+ T-cells was 100 to 500 nM each time.
Consider `Cn1c(-c2ccc(Oc3ccc(OC(F)(F)F)cc3)c(F)c2)nc2c1c(=O)[nH]c(=O)n2CC(O)CF` (centres unmarked) [Compound 149, 3-(3-fluoro-2-hydroxypropyl)-8-(3-fluoro-4-(4-(trifluoromethoxy)phenoxy)phenyl)-7-methyl-3,7-dihydro-1H-purine-2,6-dione], for which the EC50 in the assay on CD8+ T-cells and in the assay on CD4+ T-cells was 100 to 500 nM throughout.
Consider `CC(CO)Cn1c(=O)[nH]c(=O)c2c1nc(-c1ccc(Oc3ccc(Cl)cc3)c(Cl)c1)n2C` (centres unmarked) [Compound 150, 8-(3-chloro-4-(4-chlorophenoxy)phenyl)-3-(3-hydroxy-2-methylpropyl)-7-methyl-3,7-dihydro-1H-purine-2,6-dione], for which the EC50 in the assay on CD8+ T-cells lay within 100 to 500 nM; in the assay on CD4+ T-cells, 500 to 1000 nM.
For `CC(CO)Cn1c(=O)[nH]c(=O)c2c1nc(-c1ccc(Oc3ccc(OC(F)F)cc3)c(Cl)c1)n2C` (centres unmarked) [Compound 151, 8-(3-chloro-4-(4-(difluoromethoxy)phenoxy)phenyl)-3-(3-hydroxy-2-methylpropyl)-7-methyl-3,7-dihydro-1H-purine-2,6-dione], in that order: 100 to 500 nM and 100 to 500 nM.
The corresponding values for `CC(CO)Cn1c(=O)[nH]c(=O)c2c1nc(-c1ccc(Oc3ccc(OC(F)(F)F)cc3)c(F)c1)n2C` (centres unmarked) [Compound 152, 8-(3-fluoro-4-(4-(trifluoromethoxy)phenoxy)phenyl)-3-(3-hydroxy-2-methylpropyl)-7-methyl-3,7-dihydro-1H-purine-2,6-dione] are 100 to 500 nM and 100 to 500 nM.
`Cn1c(-c2ccc(Oc3ccc(Cl)cc3)c(Cl)c2)nc2c1c(=O)[nH]c(=O)n2CC(O)C(F)(F)F` (centres unmarked) [Compound 153, 8-(3-chloro-4-(4-chlorophenoxy)phenyl)-7-methyl-3-(3,3,3-trifluoro-2-hydroxypropyl)-3,7-dihydro-1H-purine-2,6-dione]: the concentration for a half-maximal effect (EC50) in the assay on CD8+ T-cells and with CD4+ T-cells was 100 to 500 nM throughout.
As to `CC(O)Cn1c(=O)[nH]c(=O)c2c1nc(-c1ccc(Oc3ccc(OC(F)(F)F)cc3)c(C(F)(F)F)c1)n2C` (centres unmarked) [Compound 155, 3-(2-hydroxypropyl)-7-methyl-8-(4-(4-(trifluoromethoxy)phenoxy)-3-(trifluoromethyl)phenyl)-3,7-dihydro-1H-purine-2,6-dione], the EC50 in the assay on CD8+ T-cells and in the assay on CD4+ T-cells was 1000 to 5000 nM throughout.
`CC(O)Cn1c(=O)[nH]c(=O)c2c1nc(-c1ccc(Oc3ccc(OC(F)(F)F)cc3)c(OC(F)(F)F)c1)n2C` (centres unmarked) [Compound 156, 3-(2-hydroxypropyl)-7-methyl-8-(3-(trifluoromethoxy)-4-(4-(trifluoromethoxy)phenoxy)phenyl)-3,7-dihydro-1H-purine-2,6-dione]: the EC50 in the assay with CD8+ T-cells and with CD4+ T-cells was 100 to 500 nM in each case.
Regarding `Cn1c(-c2ccc(Oc3ccc(OC(F)(F)F)cc3F)cc2)nc2c1c(=O)[nH]c(=O)n2CC(O)C(F)(F)F` (centres unmarked) [Compound 161, 8-(4-(2-fluoro-4-(trifluoromethoxy)phenoxy)phenyl)-7-methyl-3-(3,3,3-trifluoro-2-hydroxypropyl)-3,7-dihydro-1H-purine-2,6-dione], the concentration giving a half-maximal response (EC50) with CD8+ T-cells and in the assay with CD4+ T-cells was 100 to 500 nM throughout.
As for `Cn1c(-c2ccc(Oc3ccc(OC(F)F)cc3)c(Cl)c2)nc2c1c(=O)[nH]c(=O)n2CC(O)C(F)(F)F` (centres unmarked) [Compound 162, 8-(3-chloro-4-(4-(difluoromethoxy)phenoxy)phenyl)-7-methyl-3-(3,3,3-trifluoro-2-hydroxypropyl)-3,7-dihydro-1H-purine-2,6-dione], the results for the EC50 with CD8+ T-cells and with CD4+ T-cells were over 5000 nM and 500 to 1000 nM, respectively.
As for `Cn1c(-c2ccc(Oc3ccc(OC(F)(F)F)cc3F)c(Cl)c2)nc2c1c(=O)[nH]c(=O)n2CC(O)C(F)(F)F` (centres unmarked) [Compound 163, 8-(3-chloro-4-(2-fluoro-4-(trifluoromethoxy)phenoxy)phenyl)-7-methyl-3-(3,3,3-trifluoro-2-hydroxypropyl)-3,7-dihydro-1H-purine-2,6-dione], the EC50 with CD8+ T-cells and with CD4+ T-cells was 100 to 500 nM in each case.
For `Cn1c(-c2ccc(Oc3ccc(Cl)cc3)cc2)nc2c1c(=O)[nH]c(=O)n2CC(O)C(F)(F)F` (centres unmarked) [Compound 164, 8-(4-(4-chlorophenoxy)phenyl)-7-methyl-3-(3,3,3-trifluoro-2-hydroxypropyl)-3,7-dihydro-1H-purine-2,6-dione], the EC50 in the assay on CD8+ T-cells and in the assay with CD4+ T-cells was 100 to 500 nM in each case.
Regarding `Cn1c(-c2ccc(Oc3ccc(OC(F)F)cc3)cc2)nc2c1c(=O)[nH]c(=O)n2CC(O)C(F)(F)F` (centres unmarked) [Compound 165, 8-(4-(4-(difluoromethoxy)phenoxy)phenyl)-7-methyl-3-(3,3,3-trifluoro-2-hydroxypropyl)-3,7-dihydro-1H-purine-2,6-dione], the EC50 with CD8+ T-cells and in the assay with CD4+ T-cells was 1000 to 5000 nM throughout.
For the molecule `Cn1c(-c2ccc(Oc3ccc(OC(F)(F)F)c(Cl)c3)c(F)c2)nc2c1c(=O)[nH]c(=O)n2CC(O)C(F)(F)F` (centres unmarked) [Compound 166, 8-(4-(3-chloro-4-(trifluoromethoxy)phenoxy)-3-fluorophenyl)-7-methyl-3-(3,3,3-trifluoro-2-hydroxypropyl)-3,7-dihydro-1H-purine-2,6-dione], the EC50 in the assay on CD8+ T-cells and in the assay on CD4+ T-cells was 100 to 500 nM in each case.
As for `Cn1c(-c2ccc(Oc3ccc(OC(F)(F)F)cc3)c(F)c2)nc2c1c(=O)[nH]c(=O)n2CC(O)C(F)(F)F` (centres unmarked) [Compound 167, 8-(3-fluoro-4-(4-(trifluoromethoxy)phenoxy)phenyl)-7-methyl-3-(3,3,3-trifluoro-2-hydroxypropyl)-3,7-dihydro-1H-purine-2,6-dione], the EC50 in the assay with CD8+ T-cells and with CD4+ T-cells was 100 to 500 nM each time.
Regarding `CC(O)Cn1c(=O)[nH]c(=O)c2c1nc(-c1ccc(Oc3ccc(S(C)(=O)=O)cc3)cc1)n2C` (centres unmarked) [Compound 176, 3-(2-hydroxypropyl)-7-methyl-8-(4-(4-(methylsulfonyl)phenoxy)phenyl)-3,7-dihydro-1H-purine-2,6-dione], the EC50 with CD8+ T-cells lay in the range of 500 to 1000 nM; with CD4+ T-cells it was 1000 to 5000 nM.
